Test results as given in US10435411B2, “Oxime group-containing quinoline compound, N-oxide thereof or salt thereof, agricultural and horticultural insecticide comprising the compound, and method for using the insecticide” (Nihon Nohyaku Co., Ltd., priority 2016, dated 2019).

Legend:
[1] = test system: Plutella xylostella; experiment: Insecticidal test on Plutella xylostella (dip of Chinese cabbage seedlings with laid eggs); assay type: in vivo; settings: 144 h, seedlings with laid eggs dipped about 30 seconds, 25° C., 6 days after dip treatment, criteria of Test Example 2, read-out: insecticidal efficacy (corrected mortality rate) activity level
Excerpt: Insecticidal Test on Plutella xylostella
Adults of Plutella xylostella were released onto Chinese cabbage seedlings and allowed to lay eggs thereon. At 2 days after the release of the adults, the Chinese cabbage seedlings with laid eggs were dipped for about 30 seconds in agrochemical dispersions diluted to 500 ppm, each of which contained a different kind of oxime group-containing quinoline compound represented by the general formula (1) of the present invention as an active ingredient. After air-dried, the seedlings were kept in a thermostatic chamber at 25° C. At 6 days after the dip treatment, the number of hatched larvae per plot was counted, the mortality rate was calculated according to the formula shown below, and the insecticidal efficacy was evaluated according to the criteria of Test Example 2. This test was conducted in triplicate using 10 adults of Plutella xylostella per plot. Corrected mortality rate (%)=100×(Number of hatched larvae in a non-treatment plot−Number of hatched larvae in a treatment plot)/Number of hatched larvae in a non-treatment plot [Math. 3]

[2] = test system: Laodelphax striatellus; experiment: Insecticidal test on Laodelphax striatellus (rice seedling dip); assay type: in vivo; settings: 192 h, rice seedlings dipped 30 seconds, 3rd-instar larvae, 8 days after inoculation, read-out: insecticidal efficacy (corrected mortality rate) activity level
Excerpt: Insecticidal Test on Laodelphax striatellus
The oxime group-containing quinoline compounds represented by the general formula (1) of the present invention or salts thereof were separately dispersed in water and diluted to 500 ppm. Rice plant seedlings (variety: Nihonbare) were dipped in the agrochemical dispersions for 30 seconds. After air-dried, each seedling was put into a separate glass test tube and inoculated with ten 3rd-instar larvae of Laodelphax striatellus, and then the glass test tubes were capped with cotton plugs. At 8 days after the inoculation, the numbers of surviving larvae and dead larvae were counted, the corrected mortality rate was calculated according to the formula shown below, and the insecticidal efficacy was evaluated according to the criteria shown below. Corrected mortality rate (%)=100×(Survival rate in a non-treatment plot−Survival rate in a treatment plot)/Survival rate in a non-treatment plot [Math. 2] Criteria A: the corrected mortality rate is 100%. B: the corrected mortality rate is 90 to 99%. C: the corrected mortality rate is 80 to 89%. D: the corrected mortality rate is 50 to 79%.

| Compound | mortality at 500 ppm [1] | mortality at 500 ppm [2] |
| --- | --- | --- |
| CCS(=O)(=O)c1cc2ccc(/C=N/OCS(C)(=O)=O)cc2nc1-c1nc2cc(C(F)(F)F)cnc2n1C [Compound 2-25, 3-(ethylsulfonyl)-2-(3-methyl-6-(trifluoromethyl)-3H-imidazo[4,5-b]pyridin-2-yl)quinoline-7-carbaldehyde O-(methylsulfonylmethyl)oxime] | 100% | 100% |
| CCS(=O)(=O)c1cc2cc(/C(C)=N/O)ccc2nc1-c1nc2cc(SC(F)(F)F)ccc2o1 [Compound 3-2, 1-(3-(ethylsulfonyl)-2-(5-(trifluoromethylthio)benzo[d]oxazol-2-yl)quinolin-6-yl)ethanone oxime] | 100% | 100% |
| CCS(=O)(=O)c1cc2cc(/C(C)=N/OCC(F)(F)F)ccc2nc1-c1nc2cc(SC(F)(F)F)ccc2o1 [Compound 3-8, 1-(3-(ethylsulfonyl)-2-(5-(trifluoromethylthio)benzo[d]oxazol-2-yl)quinolin-6-yl)ethanone O-(2,2,2-trifluoroethyl)oxime] | 100% | 100% |
| CCS(=O)(=O)c1cc2ccc(/C=N/OC[S+](C)[O-])cc2nc1-c1nc2cc(C(F)(F)F)cnc2n1C (centres unmarked) [Compound 2-24, 3-(ethylsulfonyl)-2-(3-methyl-6-(trifluoromethyl)-3H-imidazo[4,5-b]pyridin-2-yl)quinoline-7-carbaldehyde O-(methylsulfinylmethyl)oxime] | 100% | 100% |
| CCS(=O)(=O)c1cc2cc(/C=N/O)ccc2nc1-c1nc2cc(C(F)(F)F)cnc2n1C [Compound 1-1, (E)-3-(ethylsulfonyl)-2-(3-methyl-6-(trifluoromethyl)-3H-imidazo[4,5-b]pyridin-2-yl)quinoline-6-carbaldehyde oxime] | 100% | 100% |
| CCS(=O)(=O)c1cc2ccc(/C=N/OCSC)cc2nc1-c1nc2cc(C(F)(F)F)cnc2n1C [Compound 2-19, 3-(ethylsulfonyl)-2-(3-methyl-6-(trifluoromethyl)-3H-imidazo[4,5-b]pyridin-2-yl)quinoline-7-carbaldehyde O-(methylthiomethyl)oxime] | 100% | 100% |
| CCS(=O)(=O)c1cc2cc(/C=N/OCC(F)(F)F)ccc2nc1-c1nc2cc(C(F)(F)F)cnc2n1C [Compound 1-7, (E)-3-(ethylsulfonyl)-2-(3-methyl-6-(trifluoromethyl)-3H-imidazo[4,5-b]pyridin-2-yl)quinoline-6-carbaldehyde O-(2,2,2-trifluoroethyl)oxime] | 100% | 100% |
